How the values were obtained:
LD50 = details: cat, in vivo
dog = assay: Protocol M simile: high or repetitive infusions in single dogs; assay type: in vivo
Description: It is noted that the dP/dt increased by 350% after the eighth dose and dF/dt by 450%.
In one dog using protocol M simile, 240 mg/Kg of berberine HCI was administered and dP/dt increased by 75%, aortic flow by 67%, heart rate fell from 150 to 114 beats/min., diastolic aortic pressure fell from 92 to 67 mmHg, and left atrial pressure fell from 8.5 to 7.5 mmHg.
When this type of experiment was repeated with tetrahydropalmatine, a first dose of 3.5 mg/Kg was given without maintaining the pressure constant and arterial pressure fell from 142/115 to 118/90 mmHg. When the second infusion was given with constant pressure, dP/dt increased by 17%.

[1] = Microneucleus test with Ames test on urine for mutagenic potential
Mongrel dogs = assay: Protocol Z: continuous 35 minute infusion in anesthetized open-chest dogs, constant left ventricular pressure; assay type: in vivo; details: for reduction of calculated peripheral resistance: 0.2 mg/Kg/min
Description: Mongrel dogs weighing between 15 and 25 kg were anesthetized with intravenous sodium thiamylal (20 mg/kg initially with additional doses given as needed). The dogs were intubated endotracheally, and respiration was maintained by a Harvard respirator. The chest was then opened in the fourth left intercostal space and the heart suspended temporarily in a pericardial cradle.
Aortic pressures were recorded through a polyethylene cannula introduced through the carotid artery (Statham P23 Db pressure transducer) and electrocardiogram (lead aVF) were recorded throughout the experiment on a polygraph (Gould Instruments). Another polyethylene cannula was placed in the left atrium for measurement of atrial pressure (Statham P23 Db pressure transducer). An electromagnetic flowmeter (Biotonix Laboratories) was placed around the ascending aorta and the aortic flow was recorded on a polygraph. Two catheters were inserted into the left ventricle through a femoral artery.
The first ("pigtail") served as a reference, while the second (Millar microtip transducer catheter) was connected through a Millar transducer (Millar Instruments, Houston, Texas) to the polygraph, where both left ventricular pressure curves were recorded simultaneously. The left ventricular end diastolic pressure was recorded separately through a Millar catheter. The first derivative of the left ventricular pressure (dP/dt) was obtained by electronic differentiation of the left ventricular pulse recorded through the Millar catheter.
A reservoir of blood was connected with the femoral artery in order to maintain constant left ventricular pressure during the experiment. In this protocol, similarly to protocol M, systemic arterial pressure was maintained constant in order to have accurate measurements of dP/dt which represent well left ventricular contractility when the systolic pressure is maintained constant. However, calculated total peripheral resistance will be higher (an underestimation of the fall). After stabilization of hemodynamics as reflected by continuously monitored parameters for 15 minutes, the substances to be studied were infused intravenously using a Harvard infusion pump. Registrations were made every 5 minutes at a paper speed of 200 mm/second, while all the parameters were recorded constantly at a speed of 2 mm/second. The dogs were randomly assigned to several groups: • Group a) Control - in these dogs a solution of 5% dextrose in water was infused in the same quantity as in the berberine treated animals (n = 7).
In all berberine, berberrubine coreximine and tetrahydropalmatine groiups the compounds were infused at constant rate for 35 minutes and the data analyzed at 5 minute intervals. • Group b) Berberine 0.7 mg/Kg/min (n = 10). • Group c) Berberine 0.2 mg/Kg/min (n = 7). • Group d) Berberine 0.02 mg/Kg/min (n = 7). • Group e) Berberrubine 0.2 mg/Kg/min (n = 7). • Group f) Tetrahydropalmatine 0.2 mg/Kg/min (n = 4). • Group g) Coreximine 0.2 mg/Kg/min (n = 8).
Therefore, group b, c and d were used to analyze the various effects of continuous infusion of berberine and its dose response and groups e and f and g used to examine the effects of these three other proberberines. Moreover, their effects were compared to the berberine treated dogs with the same dose (i.e. Group c).

dogs [2] = assay: Three week toxicology study in 12 dogs; assay type: in vivo; details: 0.2 mg/kg/min for 60 minutes twice daily for 3 weeks
dogs [3] = assay: Arrhythmias produced by intravenous infusion of aconitine; assay type: in vivo
Description: To examine the effects of berberine on arrhythmias produced by intravenous infusion of aconitine in fifteen dogs after development of VEA, of at least 50% of the beats or more, the dogs were given berberine intravenously as a bolus (1-5 mg/Kg) or 5% dextrose in water.

[4] = one dog, after the eighth dose, 0.7 mg/kg/min repeated up to 56 mg/Kg
[5] = 0.7 mg/Kg/min, after 35 minutes
[6] = 0.7 mg/Kg/min, over the control

COc1ccc2cc3[n+](cc2c1OC)CCc1cc2c(cc1-3)OCO2 [berberine]
LD50 (LD50): ~55 mg/kg | arrhythmias (dog; one dog, 240 mg/Kg): No arrhythmias were noted | increase of aortic flow (dog; one dog, 240 mg/Kg): 67% | increase of dP/dt (dog; one dog, 240 mg/Kg): 75% | left atrial pressure (dog; one dog, 240 mg/Kg, from 8.5): 7.5 mmHg | diastolic aortic pressure (dog; one dog, 240 mg/Kg, from 92): 67 mmHg | heart rate (dog; one dog, 240 mg/Kg, from 150): 114 beats/min | increase of dF/dt (dog; [4]): 450% | increase of dP/dt (dog; [4]): 350% | arrhythmias (dog; one dog, up to 56 mg/Kg): No arrhythmias were observed | mutagenic potential [1]: negative | increase in dP/dt (Mongrel dogs; 0.002 mg/Kg/min, one additional dog): 20% | increase of pulse pressure (Mongrel dogs; 0.02 mg/Kg/min (group d)): 18.5 ± 10% | increase in dP/dt (Mongrel dogs; 0.02 mg/Kg/min, after 35 minutes): 35.8 ± 8.2% | reduction of calculated peripheral resistance (Mongrel dogs): over 30% | Stroke volume (SV) (Mongrel dogs; 0.2 mg/Kg/min (Table XIII)): increased significantly | fall in diastolic arterial pressure (widening in the pulse-pressure, PP) relative to the other three drugs (Mongrel dogs; 0.2 mg/Kg/min (Table XIII)): more than twice as large | fall of heart rate (HR) (Mongrel dogs; 0.2 mg/Kg/min (Table XIII)): 16-17% | increase of aortic flow (stroke volume) (Mongrel dogs; 0.2 mg/Kg/min (group c)): 53.6 ± 17.7% | reduction of heart rate (Mongrel dogs; 0.7 mg/Kg/min): 32 ± 3% | increase in LV dP/dt (Mongrel dogs; 0.7 mg/Kg/min, after 5 minutes): 35% | decrease of calculated total peripheral resistance (Mongrel dogs; [5]): 46.8 ± 9.3% | increase of aortic pulse-pressure (Mongrel dogs; [5]): 125 ± 19% | increase of peak aortic blood flow (Mongrel dogs; 0.7 mg/Kg/min, after 35 minutes, ascending aorta): 73% | increase in LV dP/dt (Mongrel dogs; 0.7 mg/Kg/min, at 35 minutes): 43.2 ± 7.0% | increase in cardiac output (Mongrel dogs; [6]): 75 ± 29% | increase in stroke volume (calculated by planimetry) (Mongrel dogs; [6]): 169 ± 36% | fall in heart rate (Mongrel dogs; at the smaller doses): no significant fall in heart rate | QTc interval (Mongrel dogs; dog, in vivo): overall increase | P-R interval (Mongrel dogs; i.v. for 60' (0.7 mg/Kg/min), total 42 mg/Kg): does not increase the P-R interval | QRS complex or interval (Mongrel dogs; over the period of i.v. administration (Fig. XVII)): not increased | average increase of QTc (Mongrel dogs; when dP/dt is increased by 43%): 16% | side effects (electrolytes, heptatic function, renal function, proteins, coagulation, blood cells, platelet count) (dogs [2]): no side effects were observed | tissues at post-mortem (dogs [2]): normal histologically | dogs with regression of the arrhythmias to normal sinus or supraventricular rhythm (dogs [3]; intravenous bolus 1-5 mg/Kg after VEA of at least 50% of the beats, controls 20%): 78% | ventricular fibrillation (dogs [3]; two cases): ventricular fibrillation reverted to normal sinus rhythm

COc1ccc2cc3[n+](cc2c1O)CCc1cc2c(cc1-3)OCO2 [berberrubine]
reduction of calculated peripheral resistance (Mongrel dogs): did not show that property to that pronounced degree | Stroke volume (SV) (Mongrel dogs; 0.2 mg/Kg/min (Table XIII)): just slightly (and not statistically significantly) | fall of heart rate (HR) (Mongrel dogs; 0.2 mg/Kg/min (Table XIII)): 16-17%

COc1cc2c(cc1O)C[C@H]1c3cc(O)c(OC)cc3CCN1C2 [coreximine]
result when the experiments are repeated (dog; dog, in vivo): comparable results are obtained | reduction of calculated peripheral resistance (Mongrel dogs): did not show that property to that pronounced degree | Stroke volume (SV) (Mongrel dogs; 0.2 mg/Kg/min (Table XIII)): increased significantly | fall of heart rate (HR) (Mongrel dogs; 0.2 mg/Kg/min (Table XIII)): 16-17%
